# Experiments:
# [1] = biological target: T1, human A1AR (hA1AR) (Homo sapiens, UniProt P30542); experiment: Single-point radioligand displacement, [3H]DPCPX; format: binding; details: 1 μM probe; CHO cell membranes; co-incubated with radioligand 30 min at 25 °C; mean of two experiments
# T1 construct: expressed in transfected cells; host or cells: CHO cells (CHOhA1AR), gift of Prof; S.J. Hill, University of Nottingham; membrane fractions
# T1 sequence (P30542 1-326): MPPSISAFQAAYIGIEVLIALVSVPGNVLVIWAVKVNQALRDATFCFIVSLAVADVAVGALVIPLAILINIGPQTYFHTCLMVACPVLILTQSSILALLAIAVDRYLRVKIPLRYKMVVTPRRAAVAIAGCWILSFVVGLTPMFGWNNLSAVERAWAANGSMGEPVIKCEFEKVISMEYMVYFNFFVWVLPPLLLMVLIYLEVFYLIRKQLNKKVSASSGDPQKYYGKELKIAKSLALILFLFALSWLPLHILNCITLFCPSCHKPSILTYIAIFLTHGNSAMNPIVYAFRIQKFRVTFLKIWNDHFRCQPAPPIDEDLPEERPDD
# Experimental: (§1) Membrane aliquots containing 15 μg (CHOhA3AR), 5 μg (CHOhA1AR), or 30 μg (HEK293hA2AAR and CHO-spap-A2BAR) of protein were resuspended in assay buffer (A3AR: 50 mM Tris–HCl, pH 8.0, 10 mM MgCl2, 1 mM EDTA, 0.01% CHAPS; A1AR and A2AAR: 50 mM Tris–HCl, pH 7.4; A2BAR: 50 mM Tris–HCl, pH 7.4, 0.1% CHAPS). […] Nonspecific binding was determined in the presence of 100 μM NECA (A3AR), 100 μM CPA (A1AR), 100 μM NECA (A2AAR), and 10 μM ZM241385 (A2BAR). Incubations were terminated by rapid vacuum filtration to separate the bound and free radioligand through prewetted 96-well GF/C filter plates using a PerkinElmer Filtermate harvester. Filters were subsequently washed 12 times with ice-cold wash buffer (A3AR: 50 mM Tris–HCl, pH 8.0, 10 mM MgCl2, 1 mM EDTA; A1AR and A2AAR: 50 mM Tris–HCl, pH 7.4; A2BAR: 50 mM Tris–HCl, pH 7.4, 0.1% BSA). The plates were dried at 55 °C, and MicroscintTM-20 cocktail (PerkinElmer) was added subsequently.
# (§2) Single point displacement values shown are mean percentages of two individual experiments performed in duplicate. All pKi values shown are mean values ± SEM of three individual experiments performed in duplicate.
# [2] = biological target: T2, hA3AR (Homo sapiens, UniProt P0DMS8); experiment: Wash-out assay, [3H]PSB-11 binding after washing; details: 1 μM compound, pre-incubated 2 h at 25 °C, washed 4 times
# T2 construct: expressed in transfected cells; host or cells: CHO cells (CHOhA3AR), gift of Prof; K.N. Klotz, University of Würzburg; used as membrane fractions or live cells
# T2 sequence (P0DMS8 1-318): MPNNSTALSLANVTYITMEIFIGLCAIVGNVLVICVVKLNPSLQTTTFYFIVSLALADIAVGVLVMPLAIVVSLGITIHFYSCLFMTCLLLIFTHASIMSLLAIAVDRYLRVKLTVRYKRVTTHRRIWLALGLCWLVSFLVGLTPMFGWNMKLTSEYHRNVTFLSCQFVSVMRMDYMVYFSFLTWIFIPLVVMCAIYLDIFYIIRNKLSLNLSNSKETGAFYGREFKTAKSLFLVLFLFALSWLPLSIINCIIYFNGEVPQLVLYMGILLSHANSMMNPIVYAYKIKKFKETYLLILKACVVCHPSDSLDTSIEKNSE
# Experimental: 200 μL assay buffer (50 mM Tris–HCl, pH 8.0, 10 mM MgCl2, 1 mM EDTA and 0.01% CHAPS), 100 μL assay buffer containing the competing ligand (final concentration: 1 μM), and 100 μL of CHOhA3AR membrane fractions (100 μg protein) were combined and pre-incubated for 2 h at 25 °C while shaking. The ‘4× washed’ samples were centrifuged (5 min, 13,000 rpm, 4 °C), and the supernatant was removed. The resulting pellet was dissolved in 1 mL of assay buffer and incubated for 10 min at 25 °C while shaking. The ‘4× washed’ samples were then again centrifuged (2 min, 13,000 rpm, 4 °C), the supernatant was removed, and the resulting pellet was dissolved in 1 mL of assay buffer. The latter washing steps were repeated two times (four times washing total), and the final pellet was dissolved in 300 μL assay buffer. The radioligand (10 nM [^3H]PSB-11) in 100 μL of assay buffer was added to all samples, and the samples were incubated at 25 °C for 1 h. Nonspecific binding was determined in the presence of 100 μM NECA. Incubations were terminated by addition of 1 mL of ice-cold washing buffer (50 mM Tris–HCl, pH 8.0, 10 mM MgCl2, 1 mM EDTA) and rapid vacuum filtration through prewetted 96-well GF/B filter plates using a Brandel harvester. Filters were subsequently washed 5 times with ice-cold wash buffer. The plates were dried under vacuum, and a MicroscintTM-20 cocktail (PerkinElmer) was added subsequently. After 3 h, the filter-bound radioactivity was determined using a 2450 MicroBeta Microplate Counter (PerkinElmer).
# [3] = biological target: T2, hA3AR; experiment: Single-point radioligand displacement, [3H]PSB-11; format: binding; details: 1 μM probe; CHO cell membranes; co-incubated with radioligand 30 min at 25 °C; mean of two experiments
# Experimental: as §1, §2
# [4] = biological target: T3, human A2AAR (hA2AAR) (Homo sapiens, UniProt P29274); experiment: Single-point radioligand displacement, [3H]ZM241385; format: binding; details: 1 μM probe; HEK293 cell membranes; co-incubated with radioligand 30 min at 25 °C; mean of two experiments
# T3 construct: expressed in transfected cells; host or cells: HEK293 cells (HEKhA2AAR), gift of Dr. J. Wang, Biogen; membrane fractions
# T3 sequence (P29274 whole entry): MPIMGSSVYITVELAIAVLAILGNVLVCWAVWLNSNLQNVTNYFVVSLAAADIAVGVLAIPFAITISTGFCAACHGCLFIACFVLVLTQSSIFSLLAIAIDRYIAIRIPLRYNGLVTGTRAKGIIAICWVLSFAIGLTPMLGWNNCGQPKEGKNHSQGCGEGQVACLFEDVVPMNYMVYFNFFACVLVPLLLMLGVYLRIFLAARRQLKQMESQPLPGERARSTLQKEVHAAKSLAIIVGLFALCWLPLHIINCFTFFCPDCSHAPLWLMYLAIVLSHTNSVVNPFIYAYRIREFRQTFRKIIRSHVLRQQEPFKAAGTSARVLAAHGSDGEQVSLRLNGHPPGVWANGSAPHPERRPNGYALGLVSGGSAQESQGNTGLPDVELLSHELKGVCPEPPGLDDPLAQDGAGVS
# Experimental: as §1, §2
# [5] = biological target: T4, hA1AR (Homo sapiens, UniProt P30542); experiment: Full curve displacement assays on the hA1AR; format: binding; details: from full curve displacement assays (Table S1)
# T4 construct: expressed in transfected cells; host or cells: CHO cells (CHOhA1AR), gift of Prof; S.J. Hill, University of Nottingham; membrane fractions
# T4 sequence (P30542 1-326): T1 sequence (P30542 1-326)
# Experimental: The affinity of the synthesized AfBPs was determined in radioligand binding experiments. First, single concentration displacement assays were carried out on all four human adenosine receptors, using a final probe concentration of 1 μM (Table 1). […] This quick screen indicated a good selectivity toward the hA3AR over the other human ARs, a trend that was also observed in the case of the parent compound.[34] Next, the ‘apparent’ affinities (depicted as pKi values) toward the hA3AR were determined using full curve displacement assays. To study the presumable covalent mode of action, the apparent affinity was determined with (pre-4 h) and without (pre-0 h) 4 h of pre-incubation of AfBP with hA3AR, prior to addition of radioligand. […] This difference in affinity was reflected in a shift in apparent pKi. […] To further investigate selectivity toward the hA3AR over the hA1AR, full curve displacement assays were carried out on the hA1AR.
# […]. Single point displacement values shown are mean percentages of two individual experiments performed in duplicate. All pKi values shown are mean values ± SEM of three individual experiments performed in duplicate. Statistical analysis was performed using a one-way ANOVA test with multiple comparisons (****p < 0.0001).
Structure (SMILES),"% specific [3H]DPCPX displacement, hA1AR [1]",binding to hA3AR after wash-out ([3H]PSB-11 binding recovery) [2],"% specific [3H]PSB-11 displacement, hA3AR [3]","% specific [3H]ZM241385 displacement, hA2AAR [4]",selectivity toward the hA3AR over the hA1AR [5]
"C#CCOc1ccn2c(c1)nc1c2c(=O)n(CCC)c(=O)n1CCCNC(=O)c1ccc(S(=O)(=O)F)cc1 [compound 9, 4-((3-(2,4-Dioxo-8-(prop-2-yn-1-yloxy)-3-propyl-3,4-dihydropyrido[2,1-f]purin-1(2H)-yl)propyl)carbamoyl)benzenesulfonyl fluoride]",21%,persistent binding,95%,7%,> 17 fold
"C#CCN(CCCn1c(=O)n(CCC)c(=O)c2c1nc1cc(OC)ccn12)C(=O)c1ccc(S(=O)(=O)F)cc1 [compound 5, 4-((3-(8-Methoxy-2,4-dioxo-3-propyl-3,4-dihydropyrido[2,1-f]purin-1(2H)-yl)propyl)(prop-2-yn-1-yl)carbamoyl)benzenesulfonyl fluoride]",2%,persistent binding,95%,0%,> 100 fold

# From PMC10461224, “Development of an Affinity-Based Probe to Profile Endogenous Human Adenosine A3 Receptor Expression” (Journal of Medicinal Chemistry, 2023)
